From patent US11839610B2 (priority 2022, dated 2023)
Where two headings read alike, the source gives them in different places.

Key:
[1] = test system: Omicron S protein pseudovirus (nCoV-S-Luc-B.1.1.529) in ACE2-293T cells; assay: microbe, parasite or virus in culture; assay type: cell-based; details: read-out: 50% inhibitory concentrations (IC50) for viral infection, Omicron
[2] = test system: Delta S protein pseudovirus (nCoV-S-Luc-B.1.617.2) in ACE2-293T cells; assay: microbe, parasite or virus in culture; assay type: cell-based; details: for Levels of viral infection, Delta, Ave.: luciferase activity, Control group as 100%; for IC50: read-out: 50% inhibitory concentrations (IC50) for viral infection, Delta, alkaloid compounds, n = 3

Row | Compound | Cell Viability (%) (ACE2-293T cells) | cytotoxic to the ACE2-293T cells (in words) (ACE2-293T cells) | IC50 [1] [nM] | Levels of viral infection, Delta, Ave. ([2]; Conc. 0.1 μM) [%] | Levels of viral infection, Delta, Ave. ([2]; Conc. 1 μM) [%] | Levels of viral infection, Delta, Ave. ([2]; Conc. 10 μM) [%] | IC50 [2] [nM] | Cell Viability (%) (ACE2-293T cells; human) | IC50 ([1]; Pseudovirus) [nM] | Levels of viral infection, Delta, Ave. ([2]; Conc. 5 μM) [%] | IC50 ([2]; Pseudovirus) [nM]
1 | COc1cc2c3cc1Oc1c4c(cc5c1[C@H](Cc1ccc(cc1)Oc1cc(ccc1O)C[C@H]3N(C)CC2)N(C)CC5)OCO4 [Cepharanoline] | 97.24 ± 0.87 | caused no damages | 1310 ± 70 | 89.65 | 64.01 | −3.64 | 1640 ± 180 |  |  |  | 
2 | COc1ccc2cc1Oc1ccc(cc1)C[C@H]1c3cc(c(OC)cc3CCN1C)Oc1c(O)c(OC)cc3c1[C@H](C2)N(C)CC3 [Fangchinoline] |  | caused no damages |  |  | 64.54 | 7.13 |  | 95.56 ± 2.82 | 1440 ± 60 | 27.89 | 1820 ± 20
3 | Cycleanine |  |  | 530 ± 30 | 118.65 | 88.48 | −3.84 | 2210 ± 500 |  |  |  | 
